Key:
Fasciola hepatica [1] = test: Study 1: efficacy against induced Fasciola hepatica infection in cattle (fluke counts at necropsy); conditions: subcutaneously to cattle at 6 and 8 mg/kg bodyweight as a 30% w/v solution
[2] = Study 2: clorsulon plasma pharmacokinetics in cattle (LC-MS); type: in vivo; conditions: for Maximum plasma concentrations: cattle
Experimental: Whole blood samples for analysis of plasma for analysis of clorsulon were collected from the jugular vein. Samples were collected in ˜7.5 mL lithium heparinized tubes for plasma preparation once prior to treatment on Day-2±1. Thereafter, blood samples were collected according to the Schedule of Operations (Table 3). The time of blood sampling was recorded, and care was taken to avoid cross-contamination of samples during sample collection, storage, and processing. Plasma was recovered from each sample, aliquoted (two aliquots) and stored frozen (at or below −20° C.) until required for assays. The cryo-tubes were labeled with Study Number, type of sample, date, Study Day/time of sampling, and animal ID.
One aliquot with plasma was used for analysis for clorsulon concentrations using currently High Performance Liquid Chromatography-Mass Spectrometry (LC-MS) methodology.
Plasma samples were assayed for clorsulon.
If quantifiable plasma concentrations were determined for an animal, pharmacokinetic analysis was performed as described below. Clorsulon plasma concentrations were determined for an animal at each sampling time, when appropriate. […] The mean concentration-time profiles will be obtained by averaging the concentrations at each sampling time point for all treated animals.
The therapeutic efficacy and pharmacokinetic parameters of clorsulon were evaluated when administered subcutaneously as 30% (w/v) clorsulon formulation to cattle experimentally infected with liver flukes (Fasciola hepatica). This study differs from Study Number 1 in that there is no administration of 10% (w/v) clorsulon and only immature (four week old) F. hepatica flukes were used.

Fasciola hepatica [3] = test: Study 2: efficacy against four week old Fasciola hepatica in cattle

Maximum plasma concentrations ([2]; Group 2: 30% w/v solution, 8 mg clorsulon/kg SC): 5740 ± 1160 ng/mL | Maximum plasma concentrations ([2]; Group 3: 30% w/v solution, 6 mg clorsulon/kg SC): 4430 ± 988 ng/mL | Maximum plasma concentrations ([2]; Group 4: 30% w/v solution, 4 mg clorsulon/kg SC): 3140 ± 530 ng/mL | time at which maximum plasma concentrations were reached ([2]; Groups 2-4 (4, 6, 8 mg/kg SC), 12 out of 18 animals): ≤ 12 h
SMILES: Nc1cc(C(Cl)=C(Cl)Cl)c(S(N)(=O)=O)cc1S(N)(=O)=O [clorsulon, 4-amino-6-(1,2,2-trichloroethenyl)benzene-1,3-disulfonamide]
efficacy against early immature (four and six week old) F. hepatica (Fasciola hepatica [1]): 98-100% | Eff (%) against Fasciola hepatica (Fasciola hepatica [3]; Group 2: 30% w/v solution, 8 mg/kg subcutaneously once on Day 0 (4 week old flukes)): 99.6% | Eff (%) against Fasciola hepatica (Fasciola hepatica [3]; Group 3: 30% w/v solution, 6 mg/kg subcutaneously once on Day 0 (4 week old flukes)): 99.9% | Eff (%) against Fasciola hepatica (Fasciola hepatica [3]; Group 4: 30% w/v solution, 4 mg/kg subcutaneously once on Day 0 (4 week old flukes)): 92.9%
